Test results taken from patent publication US20230085307A1, “PYRIDAZINONE COMPOUND AND HERBICIDE” (NISSAN CHEMICAL CORPORATION, priority 2019, published 2023).

Legend:
wild oat [1] = test: Test Example 5: herbicidal effect by foliage application, plastic box (Table 20, symbol I); assay type: in vivo, wild oat (Avena fatua); details: foliage application after 14-day growth, evaluated three weeks after application
Summary of the method: (§1)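 Sow seeds spot-wise in sterilized diluvial soil; cover with ~1.5 cm soil. Grow 14 days in greenhouse, 25° C. to 30° C. Spray foliage with emulsion diluted to predetermined amount. Rate effect after 3 weeks.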

chickweed [2] = test: Test Example 5: herbicidal effect by foliage application, plastic box (Table 20, symbol P); assay type: in vivo, common chickweed (Stellaria media); details: foliage application after 14-day growth, evaluated three weeks after application
Summary of the method: as §1

redroot pigweed [3] = test: Test Example 5: herbicidal effect by foliage application, plastic box (Table 20, symbol N); assay type: in vivo, redroot pigweed (Amaranthus retroflexus); details: foliage application after 14-day growth, evaluated three weeks after application
Summary of the method: as §1

wild oat [4] = test: Test Example 4: herbicidal effect by soil treatment (Table 19, symbol I); assay type: in vivo, wild oat (Avena fatua); details: amount of applied herbicide 320 g/ha
Summary of the method: (§2)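 Applied as a water-diluted emulsion, the compound was sprayed onto soil covering newly sown seeds. Evaluation came three weeks after application, in a greenhouse held at 25° C. to 30° C.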

Italian ryegrass [5] = test: Test Example 5: herbicidal effect by foliage application, plastic box (Table 20, symbol K); assay type: in vivo, Italian ryegrass (Lolium multiflorum); details: foliage application after 14-day growth, evaluated three weeks after application
Summary of the method: as §1

persian speedwell [6] = test: Test Example 5: herbicidal effect by foliage application, plastic box (Table 20, symbol R); assay type: in vivo, Persian speedwell (Veronica persica); details: foliage application after 14-day growth, evaluated three weeks after application
Summary of the method: as §1

windgrass [7] = test: Test Example 5: herbicidal effect by foliage application, plastic box (Table 20, symbol L); assay type: in vivo, windgrass (Apera spica-venti); details: foliage application after 14-day growth, evaluated three weeks after application
Summary of the method: as §1

rice flat sedge = test: Test Example 3: herbicidal effect by foliage application, Wagner pot (Table 18, symbol E); assay type: in vivo, rice flat sedge (Cyperus iria); details: 320 g/ha
Summary of the method: (§3)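 Plants were sown in alluvial soil held under 0.1–0.5 cm standing water and grown 14 days in a greenhouse at 25–30 °C. An emulsifiable formulation, water-diluted to the set dose, was then sprayed onto the foliage, and effects were scored three weeks later using previously defined criteria.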

lambsquarters [8] = test: Test Example 4: herbicidal effect by soil treatment (Table 19, symbol O); assay type: in vivo, lambsquarters (Chenopodium album); details: amount of applied herbicide 320 g/ha
Summary of the method: as §2

blackgrass = test: Test Example 5: herbicidal effect by foliage application, plastic box (Table 20, symbol J); assay type: in vivo, blackgrass (Alopecurus myosuroides); details: foliage application after 14-day growth, evaluated three weeks after application
Summary of the method: as §1

barnyard grass [9] = test: Test Example 5: herbicidal effect by foliage application, plastic box (Table 20, symbol H); assay type: in vivo, barnyard grass (Echinochloa crus-galli); details: foliage application after 14-day growth, evaluated three weeks after application
Summary of the method: as §1

southern crabgrass [10] = test: Test Example 4: herbicidal effect by soil treatment (Table 19, symbol F); assay type: in vivo, southern crabgrass (Digitaria ciliaris); details: amount of applied herbicide 320 g/ha
Summary of the method: as §2

lambsquarters [11] = test: Test Example 5: herbicidal effect by foliage application, plastic box (Table 20, symbol O); assay type: in vivo, lambsquarters (Chenopodium album); details: foliage application after 14-day growth, evaluated three weeks after application
Summary of the method: as §1

Italian ryegrass [12] = test: Test Example 4: herbicidal effect by soil treatment (Table 19, symbol K); assay type: in vivo, Italian ryegrass (Lolium multiflorum); details: amount of applied herbicide 320 g/ha
Summary of the method: as §2

velvetleaf [13] = test: Test Example 4: herbicidal effect by soil treatment (Table 19, symbol M); assay type: in vivo, velvetleaf (Abutilon theophrasti); details: amount of applied herbicide 320 g/ha
Summary of the method: as §2

velvetleaf [14] = test: Test Example 5: herbicidal effect by foliage application, plastic box (Table 20, symbol M); assay type: in vivo, velvetleaf (Abutilon theophrasti); details: foliage application after 14-day growth, evaluated three weeks after application
Summary of the method: as §1

windgrass [15] = test: Test Example 4: herbicidal effect by soil treatment (Table 19, symbol L); assay type: in vivo, windgrass (Apera spica-venti); details: amount of applied herbicide 320 g/ha
Summary of the method: as §2

redroot pigweed [16] = test: Test Example 4: herbicidal effect by soil treatment (Table 19, symbol N); assay type: in vivo, redroot pigweed (Amaranthus retroflexus); details: amount of applied herbicide 320 g/ha
Summary of the method: as §2

green foxtail [17] = test: Test Example 4: herbicidal effect by soil treatment (Table 19, symbol G); assay type: in vivo, green foxtail (Setaria viridis); details: amount of applied herbicide 320 g/ha
Summary of the method: as §2

persian speedwell [18] = test: Test Example 4: herbicidal effect by soil treatment (Table 19, symbol R); assay type: in vivo, Persian speedwell (Veronica persica); details: amount of applied herbicide 320 g/ha
Summary of the method: as §2

green foxtail [19] = test: Test Example 5: herbicidal effect by foliage application, plastic box (Table 20, symbol G); assay type: in vivo, green foxtail (Setaria viridis); details: foliage application after 14-day growth, evaluated three weeks after application
Summary of the method: as §1

Chinese sprangletop = test: Test Example 3: herbicidal effect by foliage application, Wagner pot (Table 18, symbol D); assay type: in vivo, chinese sprangletop (Leptochloa chinensis); details: 320 g/ha
Summary of the method: as §3

barnyard grass [20] = test: Test Example 3: herbicidal effect by foliage application, Wagner pot (Table 18, symbol H); assay type: in vivo, barnyard grass (Echinochloa crus-galli); details: 320 g/ha
Summary of the method: as §3

southern crabgrass [21] = test: Test Example 5: herbicidal effect by foliage application, plastic box (Table 20, symbol F); assay type: in vivo, southern crabgrass (Digitaria ciliaris); details: foliage application after 14-day growth, evaluated three weeks after application
Summary of the method: as §1

chickweed [22] = test: Test Example 4: herbicidal effect by soil treatment (Table 19, symbol P); assay type: in vivo, common chickweed (Stellaria media); details: amount of applied herbicide 320 g/ha
Summary of the method: as §2

barnyard grass [23] = test: Test Example 4: herbicidal effect by soil treatment (Table 19, symbol H); assay type: in vivo, barnyard grass (Echinochloa crus-galli); details: amount of applied herbicide 320 g/ha
Summary of the method: as §2

[24] = amount of applied herbicide 320 g/ha

`Cc1nn(C)c(=O)c(-c2c(-c3ccc(OC(F)F)cc3)sc3c(F)cccc23)c1O` [4-046] was tested, and the “herbicidal effect on I: wild oat (evaluation grade 0-5)” value (wild oat [1]; 320 g/ha) was 4 (Herbicidal rate of 70% or more and less than 90%), the “herbicidal effect on P: chickweed (evaluation grade 0-5)” value (chickweed [2]; 320 g/ha) was 5 (Herbicidal rate of 90% or more (almost completely withered)) and the “herbicidal effect on N: redroot pigweed (evaluation grade 0-5)” value (redroot pigweed [3]; 320 g/ha) was 5 (Herbicidal rate of 90% or more (almost completely withered)). The “Herbicidal effect by soil treatment, I: wild oat” value (wild oat [4]) was 0 (Herbicidal rate of 5% or less (almost no effect)), the “herbicidal effect on K: Italian ryegrass (evaluation grade 0-5)” value (Italian ryegrass [5]; 320 g/ha) was 5 (Herbicidal rate of 90% or more (almost completely withered)) and the “herbicidal effect on R: persian speedwell (evaluation grade 0-5)” value (persian speedwell [6]; 320 g/ha) was 5 (Herbicidal rate of 90% or more (almost completely withered)). For the same compound, the “herbicidal effect on L: windgrass (evaluation grade 0-5)” value (windgrass [7]; 320 g/ha) was 5 (Herbicidal rate of 90% or more (almost completely withered)), the “herbicidal effect on rice flat sedge (E)” value (rice flat sedge) was 5 (Herbicidal rate of 90% or more (almost completely withered)) and the “Herbicidal effect by soil treatment, O: lambsquarters” value (lambsquarters [8]) was 1 (Herbicidal rate of 5% or more and less than 20%). The “herbicidal effect on J: blackgrass (evaluation grade 0-5)” value (blackgrass; 320 g/ha) was 4 (Herbicidal rate of 70% or more and less than 90%), the “herbicidal effect on H: barnyard grass (evaluation grade 0-5)” value (barnyard grass [9]; 320 g/ha) was 5 (Herbicidal rate of 90% or more (almost completely withered)) and the “Herbicidal effect by soil treatment, F: southern crabgrass” value (southern crabgrass [10]) was 0 (Herbicidal rate of 5% or less (almost no effect)). For the same compound, the “herbicidal effect on O: lambsquarters (evaluation grade 0-5)” value (lambsquarters [11]; 320 g/ha) was 5 (Herbicidal rate of 90% or more (almost completely withered)), the “Herbicidal effect by soil treatment, K: Italian ryegrass” value (Italian ryegrass [12]) was 3 (Herbicidal rate of 40% or more and less than 70%) and the “Herbicidal effect by soil treatment, M: velvetleaf” value (velvetleaf [13]) was 3 (Herbicidal rate of 40% or more and less than 70%). The “herbicidal effect on M: velvetleaf (evaluation grade 0-5)” value (velvetleaf [14]; 320 g/ha) was 5 (Herbicidal rate of 90% or more (almost completely withered)), the “Herbicidal effect by soil treatment, L: windgrass” value (windgrass [15]) was 0 (Herbicidal rate of 5% or less (almost no effect)) and the “Herbicidal effect by soil treatment, N: redroot pigweed” value (redroot pigweed [16]) was 5 (Herbicidal rate of 90% or more (almost completely withered)). The “Herbicidal effect by soil treatment, G: green foxtail” value (green foxtail [17]) was 3 (Herbicidal rate of 40% or more and less than 70%), the “Herbicidal effect by soil treatment, R: persian speedwell” value (persian speedwell [18]) was 5 (Herbicidal rate of 90% or more (almost completely withered)) and the “herbicidal effect on G: green foxtail (evaluation grade 0-5)” value (green foxtail [19]; 320 g/ha) was 5 (Herbicidal rate of 90% or more (almost completely withered)). For the same compound, the “herbicidal effect on Chinese sprangletop (D)” value (Chinese sprangletop) was 1 (Herbicidal rate of 5% or more and less than 20%), the “herbicidal effect on barnyard grass (H)” value (barnyard grass [20]) was 5 (Herbicidal rate of 90% or more (almost completely withered)) and the “herbicidal effect on F: southern crabgrass (evaluation grade 0-5)” value (southern crabgrass [21]; 320 g/ha) was 0 (Herbicidal rate of 5% or less (almost no effect)). The “Herbicidal effect by soil treatment, P: chickweed” value (chickweed [22]) was 3 (Herbicidal rate of 40% or more and less than 70%) and the “Herbicidal effect by soil treatment, H: barnyard grass” value (barnyard grass [23]) was 3 (Herbicidal rate of 40% or more and less than 70%).
`Cc1nn(C)c(=O)c(-c2c(-c3ccc4c(c3)OCCO4)sc3cc(F)c(F)cc23)c1O` [5-037] was tested, and the “Herbicidal effect by foliage application, I: wild oat” value (wild oat [1]; [24]) was 0 (Herbicidal rate of 5% or less (almost no effect)), the “Herbicidal effect by foliage application, P: chickweed” value (chickweed [2]; [24]) was 5 (Herbicidal rate of 90% or more (almost completely withered)) and the “Herbicidal effect by foliage application, N: redroot pigweed” value (redroot pigweed [3]; [24]) was 5 (Herbicidal rate of 90% or more (almost completely withered)). The “I: wild oat, herbicidal effect grade” value (wild oat [4]) was 0 (Herbicidal rate of 5% or less (almost no effect)), the “Herbicidal effect by foliage application, K: Italian ryegrass” value (Italian ryegrass [5]; [24]) was 0 (Herbicidal rate of 5% or less (almost no effect)) and the “Herbicidal effect by foliage application, R: persian speedwell” value (persian speedwell [6]; [24]) was 5 (Herbicidal rate of 90% or more (almost completely withered)). The “Herbicidal effect by foliage application, L: windgrass” value (windgrass [7]; [24]) was 0 (Herbicidal rate of 5% or less (almost no effect)), the “herbicidal effect on rice flat sedge (E)” value (rice flat sedge) was 5 (Herbicidal rate of 90% or more (almost completely withered)) and the “O: lambsquarters, herbicidal effect grade” value (lambsquarters [8]) was 5 (Herbicidal rate of 90% or more (almost completely withered)). For the same compound, the “Herbicidal effect by foliage application, J: blackgrass” value (blackgrass; [24]) was 0 (Herbicidal rate of 5% or less (almost no effect)), the “Herbicidal effect by foliage application, H: barnyard grass” value (barnyard grass [9]; [24]) was 0 (Herbicidal rate of 5% or less (almost no effect)) and the “F: southern crabgrass, herbicidal effect grade” value (southern crabgrass [10]) was 0 (Herbicidal rate of 5% or less (almost no effect)). The “Herbicidal effect by foliage application, O: lambsquarters” value (lambsquarters [11]; [24]) was 5 (Herbicidal rate of 90% or more (almost completely withered)), the “K: Italian ryegrass, herbicidal effect grade” value (Italian ryegrass [12]) was 0 (Herbicidal rate of 5% or less (almost no effect)) and the “M: velvetleaf, herbicidal effect grade” value (velvetleaf [13]) was 5 (Herbicidal rate of 90% or more (almost completely withered)). The “Herbicidal effect by foliage application, M: velvetleaf” value (velvetleaf [14]; [24]) was 5 (Herbicidal rate of 90% or more (almost completely withered)), the “L: windgrass, herbicidal effect grade” value (windgrass [15]) was 0 (Herbicidal rate of 5% or less (almost no effect)) and the “N: redroot pigweed, herbicidal effect grade” value (redroot pigweed [16]) was 4 (Herbicidal rate of 70% or more and less than 90%). For the same compound, the “G: green foxtail, herbicidal effect grade” value (green foxtail [17]) was 0 (Herbicidal rate of 5% or less (almost no effect)), the “R: persian speedwell, herbicidal effect grade” value (persian speedwell [18]) was 5 (Herbicidal rate of 90% or more (almost completely withered)) and the “Herbicidal effect by foliage application, G: green foxtail” value (green foxtail [19]; [24]) was 0 (Herbicidal rate of 5% or less (almost no effect)). The “herbicidal effect on Chinese sprangletop (D)” value (Chinese sprangletop) was 4 (Herbicidal rate of 70% or more and less than 90%), the “herbicidal effect on barnyard grass (H)” value (barnyard grass [20]) was 4 (Herbicidal rate of 70% or more and less than 90%) and the “Herbicidal effect by foliage application, F: southern crabgrass” value (southern crabgrass [21]; [24]) was 0 (Herbicidal rate of 5% or less (almost no effect)). For the same compound, the “P: chickweed, herbicidal effect grade” value (chickweed [22]) was 0 (Herbicidal rate of 5% or less (almost no effect)) and the “H: barnyard grass, herbicidal effect grade” value (barnyard grass [23]) was 0 (Herbicidal rate of 5% or less (almost no effect)).
